Where a SMILES comes first, the peptide text is derived from it.
Legend:
[1] = tested on: E. coli ATCC 25922; assay: Killing kinetics (time kill assay); assay type: cell-based, Escherichia coli; settings: MHB, 35°C, sampled 1-24 hours, n = 2
Experimental: The killing kinetics assay was conducted using mid-logarithmic phase cultures of E. coli ATCC 25922 and S. aureus ATCC 29213 in MHB. Cultures were adjusted to a 0.5 McFarland standard, diluted in MHB, and then 100µL was added to each culture tube containing 10mL pre-warmed MHB to give a final inoculum concentration of 5 x 10^5 CFU/mL. A sterility control of 100uL MHB, growth control (no cathelicidin), and vehicle control (DMSO) were also included. Furthermore, 10uL was immediately removed from the growth control tube, diluted 1/1000 in saline and 100µL plated onto MHA in duplicate to confirm inoculum density. To establish colony counts from 0 hours of cathelicidin treatment, 200µL was removed from each culture tube and serially diluted ten-fold in saline from 10^0 to […] in a total volume of 200µL. Then, 10µL of each dilution was spotted onto MHA in duplicate, which were incubated at 35°C for 24 hours.
All culture tubes were then incubated at 35°C static. At 1, 2, 4, 6, 8, 10, 12, and 24 hours post-cathelicidin treatment, 200µL was removed from each culture tube for dilution and plated on MHA as described above. […] Counts of duplicates were averaged, and the log10 CFU/mL graphed against time. This was used as input for one-way ANOVA (p < 0.05) followed by Dunnett’s post hoc test.

[2] = tested on: Pseudomonas aeruginosa clinical isolate - animal; assay: microbe, parasite or virus in culture; assay type: cell-based; settings: clinical isolate - animal; read-out: MIC P. aeruginosa
How it was run: (§1)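 MIC read visually as the lowest peptide concentration with no growth versus negative control, after 20–24 h at 35°C. Peptides were tested in duplicate 64-0.125μg/mL (final) in MHB or cation-supplemented MH II B, some with 10% lysed horse blood; inoculum 5 x 10^5 CFU/mL.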

[3] = tested on: Staphylococcus aureus ATCC 29213; assay: microbe, parasite or virus in culture; assay type: cell-based; settings: ATCC 29213; read-out: MIC S. aureus ATCC
How it was run: as §1

[4] = tested on: Staphylococcus aureus clinical isolate - animal; assay: microbe, parasite or virus in culture; assay type: cell-based; settings: clinical isolate - animal; read-out: MIC S. aureus
How it was run: as §1

[5] = tested on: Pseudomonas aeruginosa ATCC 27853; assay: microbe, parasite or virus in culture; assay type: cell-based; settings: ATCC 27853; read-out: MIC P. aeruginosa ATCC
How it was run: as §1

[6] = tested on: Escherichia coli clinical isolate - animal; assay: microbe, parasite or virus in culture; assay type: cell-based; settings: clinical isolate - animal
How it was run: as §1

[7] = tested on: Escherichia coli ATCC 25922; assay: microbe, parasite or virus in culture; assay type: cell-based; settings: ATCC 25922
How it was run: as §1

[8] = tested on: Streptococcus agalactiae Clinical isolate - animal; assay: microbe, parasite or virus in culture; assay type: cell-based; settings: clinical isolate - animal; read-out: MIC S. agalactiae
How it was run: (§2)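 MIC defined as lowest peptide level preventing visible growth after 20–24 h at 35°C. Candida tested in RPMI-1640 MOPS; bacteria in Mueller Hinton broth, optionally with 10% lysed horse blood and/or divalent cations. Final peptide range 64-0.125 μg/mL, starting inoculum 5 x 10^5 CFU/mL, per CLSI M07-A/M26A.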

[9] = tested on: Streptococcus pneumoniae ATCC 49619; assay: microbe, parasite or virus in culture; assay type: cell-based; settings: ATCC 49619; read-out: MIC S. pneumoniae ATCC
How it was run: as §2

[10] = tested on: Streptococcus agalactiae ATCC 12386; assay: microbe, parasite or virus in culture; assay type: cell-based; settings: ATCC 12386; read-out: MIC S. agalactiae ATCC
How it was run: as §2

## CC[C@H](C)[C@H](NC(=O)[C@H](CC(=O)O)NC(=O)[C@H](CC(=O)O)NC(=O)CNC(=O)[C@H](CC(C)C)NC(=O)[C@H](CCCCN)NC(=O)[C@@H](NC(=O)[C@H](C)NC(=O)[C@H](CCCCN)NC(=O)[C@H](CCCNC(=N)N)NC(=O)[C@H](CCCCN)NC(=O)[C@H](CC(C)C)NC(=O)[C@H](CO)NC(=O)[C@H](CCC(=O)O)NC(=O)[C@H](Cc1c[nH]c2ccccc12)NC(=O)[C@H](CC(C)C)NC(=O)CNC(=O)[C@H](CCCNC(=N)N)NC(=O)[C@@H](N)CCCCN)[C@@H](C)O)C(=O)N[C@@H](CCCNC(=N)N)C(=O)N[C@@H](CC(N)=O)C(=O)N[C@H](C(=O)N[C@@H](CC(C)C)C(=O)N[C@@H](CCCNC(=N)N)C(=O)N[C@@H](CC(N)=O)C(=O)N[C@@H](Cc1ccccc1)C(=O)N[C@@H](CCCCN)C(=O)N[C@H](C(=O)N[C@@H](CCCCN)C(=O)N[C@H](C(=O)N1CCC[C@H]1C(=O)N[C@H](C(=O)N1CCC[C@H]1C(=O)N[C@@H](CCCNC(=N)N)C(=O)N[C@@H](CCC(N)=O)C(=O)N[C@@H](Cc1c[nH]c2ccccc12)C(=O)N1CCC[C@H]1C(=O)N[C@H](C(=O)N[C@@H](CCCNC(=N)N)C(=O)N[C@H](C(=O)O)C(C)C)[C@@H](C)CC)C(C)C)C(C)C)[C@@H](C)CC)[C@@H](C)O [MaruCath4] (H-KRGLWESLKRKATKLGDDIRNTLRNFKIKVPVPRQWPIRV-OH; N-terminus and C-terminus assumed)
[1]; 2x MIC
  Number of hours to cause a significant reduction in log CFU/mL of E. coli ATCC (p < 0.05): 4 hours
[1]; MIC
  Number of hours to cause a significant reduction in log CFU/mL of E. coli ATCC (p < 0.05): 4 hours
[2]
  MIC: >13.2 µM
[3]
  MIC: >13.2 µM
[4]
  MIC: >13.2 µM
[5]
  MIC: >13.2 µM
[6]
  MBC E. coli: 6.6 (6.6)^6.6 µM
  MIC E. coli: 6.6 (6.6)^6.6 µM
  MIC in the presence of cations E. coli: 6.6 (6.6)^6.6 µM
[7]
  MIC E. coli ATCC: 1.6 (1.6)^1.6 µM
  MIC in the presence of cations E. coli ATCC: 1.6 (1.6)^1.6 µM
[8]
  MIC: >13.2 µM
[9]
  MIC: >13.2 µM
[10]
  MIC: >13.2 µM
